# Experimental data: patent US7964624B1, “Inhibitors of serine proteases” (priority 2005, dated 2011)
# pKi: −log10 of the molar value.
# Target: T1, HCV NS3 protease domain (Hepatitis C virus genotype 1b, UniProt Q9WMX2)
# T1 construct: The first 181 amino acids of NS3 (residues 1027-1207 of the viral polyprotein); hexa-histidine (C); made in house; host or cells: E. coli BL21/DE3 pLysS
# Assay: biochemical
# Settings: Enzyme Assay 1 (HCV NS3 Protease Domain Peptide Cleavage Assay) activity, apparent Ki class
# T1 sequence (Q9WMX2 1027-1207, other chains not shown): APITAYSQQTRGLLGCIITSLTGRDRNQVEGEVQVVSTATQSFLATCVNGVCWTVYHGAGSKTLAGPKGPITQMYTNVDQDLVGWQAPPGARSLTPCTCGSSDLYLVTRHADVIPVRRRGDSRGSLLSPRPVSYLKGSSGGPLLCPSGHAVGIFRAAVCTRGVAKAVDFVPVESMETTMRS
row,SMILES,pKi
1,CCC[C@H](NC(=O)[C@@H]1C[C@]2(CC(c3cc(C)c(OC)c(C)c3)=NO2)CN1C(=O)[C@@H](NC(=O)O[C@H]1CCOC1)C(C)(C)C)C(=O)C(=O)NC1CC1 [Compound 224],6.30 to 7.00
2,CCC[C@H](NC(=O)[C@@H]1C[C@]2(CC(c3cccc(Cl)c3)=NO2)CN1C(=O)[C@@H](NC(=O)CCC1CCCCC1)C(C)(C)C)C(=O)C(=O)NC1CC1 [Compound 226],6.30 to 7.00
3,CCC[C@H](NC(=O)[C@@H]1C[C@]2(CC(c3ccccc3)=NO2)CN1C(=O)[C@@H](NC(C)=O)C(C)(C)C)C(=O)C(=O)NC1CC1 [Compound 228],< 6.30
4,CCC[C@H](NC(=O)[C@@H]1C[C@]2(CC(CCC(=O)OC)=NO2)CN1C(=O)[C@@H](NC(=O)O[C@H]1CCOC1)C(C)(C)C)C(=O)C(=O)NC1CC1 [Compound 229],< 6.30
5,CCC[C@H](NC(=O)[C@@H]1C[C@]2(CC(c3c(C)oc4ccccc34)=NO2)CN1C(=O)[C@@H](NC(=O)CC1CCCCC1)C(C)(C)C)C(=O)C(=O)NC1CC1 [Compound 230],6.30 to 7.00
6,CNC(=O)C(=O)C(CC1CCC1)NC(=O)[C@@H]1C[C@]2(CC(c3cccc(Cl)c3)=NO2)CN1C(=O)[C@@H](NC(=O)CC1CCCCC1)C(C)(C)C (stereo partly drawn) [Compound 231],6.30 to 7.00
7,CCC[C@H](NC(=O)[C@@H]1C[C@]2(CC(c3cc(F)cc(Cl)c3)=NO2)CN1C(=O)[C@@H](NC(=O)CC1CCOCC1)C(C)(C)C)C(=O)C(=O)NC1CC1 [Compound 234],6.30 to 7.00
8,CCCC1=NO[C@]2(C1)C[C@@H](C(=O)N[C@@H](CCC)C(=O)C(=O)NC1CC1)N(C(=O)[C@@H](NC(=O)OCc1ccccc1)C(C)(C)C)C2 [Compound 235],< 6.30
9,CCC[C@H](NC(=O)[C@@H]1C[C@]2(CC(c3cccc(Cl)c3)=NO2)CN1C(=O)[C@@H](NC(=O)CCn1ccnc1C)C(C)(C)C)C(=O)C(=O)NC1CC1 [Compound 237],6.30 to 7.00
10,CCC[C@H](NC(=O)[C@@H]1C[C@]2(CC(c3cccc(Br)c3)=NO2)CN1C(=O)[C@@H](NC(=O)OCc1ccccc1)C(C)(C)C)C(=O)C(=O)NC1CC1 [Compound 239],6.30 to 7.00
11,CCC[C@H](NC(=O)[C@@H]1C[C@]2(CC(c3ccc(C(F)(F)F)cc3)=NO2)CN1C(=O)O[C@H]1CCOC1)C(=O)C(=O)NC1CC1 [Compound 240],< 6.30
12,CCCC1=NO[C@]2(C1)C[C@@H](C(=O)N[C@@H](CCC)C(=O)C(=O)NC1CC1)N(C(=O)[C@@H](NC(=O)OC1CCOC1)C(C)(C)C)C2 (stereo partly drawn) [Compound 243],< 6.30
13,CCC[C@H](NC(=O)[C@@H]1C[C@]2(CC(c3cccc(OC(F)(F)F)c3)=NO2)CN1C(=O)[C@@H](NC(=O)O[C@H]1CCOC1)C(C)(C)C)C(=O)C(=O)NC1CC1 [Compound 244],6.30 to 7.00
14,CCC[C@H](NC(=O)[C@@H]1C[C@]2(CC(c3cccc(Cl)c3)=NO2)CN1C(=O)[C@@H](NC(=O)CC1=CCCCC1)C(C)(C)C)C(=O)C(=O)NC1CC1 [Compound 245],6.30 to 7.00
15,CC(C)(C)NC(=O)N[C@H](C(=O)N1C[C@@]2(CC(c3cccc(Cl)c3)=NO2)C[C@H]1C(=O)NC(CC1CCC1)C(=O)C(N)=O)C(C)(C)C (stereo partly drawn) [Compound 247],> 7.00
16,CCC[C@H](NC(=O)[C@@H]1C[C@]2(CC(c3ccccc3)=NO2)CN1C(=O)[C@@H](NC(=O)NCC1CCCCC1)C(C)(C)C)C(=O)C(=O)NC1CC1 [Compound 249],6.30 to 7.00
17,CCC[C@H](NC(=O)[C@@H]1C[C@]2(CC(Cc3ccccc3)=NO2)CN1C(=O)[C@@H](NC(=O)O[C@H]1CCOC1)C(C)(C)C)C(=O)C(=O)NC1CC1 [Compound 251],< 6.30
18,CCC[C@H](NC(=O)[C@@H]1C[C@]2(CC(c3cccc(Cl)c3)=NO2)CN1C(=O)[C@@H](NC(=O)OC(C)Cc1cccs1)C(C)(C)C)C(=O)C(=O)NC1CC1 (stereo partly drawn) [Compound 254],6.30 to 7.00
19,CCC[C@H](NC(=O)[C@@H]1C[C@]2(CC(c3ccc(CC)o3)=NO2)CN1C(=O)[C@@H](NC(=O)CC1CCCCC1)C(C)(C)C)C(=O)C(=O)NC1CC1 [Compound 256],6.30 to 7.00
20,CCC[C@H](NC(=O)[C@@H]1C[C@]2(CC(c3cccc(-c4ccccc4)c3)=NO2)CN1C(=O)[C@@H](NC(=O)O[C@H]1CCOC1)C(C)(C)C)C(=O)C(=O)NC1CC1 [Compound 257],6.30 to 7.00
21,CCC[C@H](NC(=O)[C@@H]1C[C@@]2(CC(c3cc(F)cc(C(F)(F)F)c3)=NO2)CN1C(=O)[C@@H](NC(=O)O[C@H]1CCOC1)C(C)(C)C)C(=O)C(=O)NC1CC1 [Compound 258],< 6.30
22,CCC[C@H](NC(=O)[C@@H]1C[C@]2(CC(c3cccc(Cl)c3)=NO2)CN1C(=O)[C@@H](NC(=O)NCc1cc(OC)c(OC)c(OC)c1)C(C)(C)C)C(=O)C(=O)NC1CC1 [Compound 259],6.30 to 7.00
23,CCC[C@H](NC(=O)[C@@H]1C[C@]2(CC(c3cccc(Cl)c3)=NO2)CN1C(=O)[C@@H](NC(=O)OCCOC)C(C)(C)C)C(=O)C(=O)NC1CC1 [Compound 260],6.30 to 7.00
24,CCC[C@H](NC(=O)[C@@H]1C[C@]2(CC(c3cccc(Cl)c3)=NO2)CN1C(=O)[C@@H](NC(=O)NC1CCN(C(=O)OCc2ccccc2)CC1)C(C)(C)C)C(=O)C(=O)NC1CC1 [Compound 261],6.30 to 7.00

row,SMILES,pKi
1,CCC[C@H](NC(=O)[C@@H]1C[C@]2(CC(c3cccc(Cl)c3)=NO2)CN1C(=O)Oc1ccc([N+](=O)[O-])cc1)C(=O)C(=O)NC1CC1 [Compound 262],< 6.30
2,CCC[C@H](NC(=O)[C@@H]1C[C@]2(CC(c3ccc(F)c(Cl)c3)=NO2)CN1C(=O)[C@@H](NC(=O)CC1CCOCC1)C(C)(C)C)C(=O)C(=O)NC1CC1 [Compound 270],6.30 to 7.00
3,CCC[C@H](NC(=O)[C@@H]1C[C@]2(CC(c3cccc(Cl)c3)=NO2)CN1C(=O)[C@@H](NC(=O)CC1CCCCC1)C(C)(C)C)C(=O)C(N)=O [Compound 273],6.30 to 7.00
4,CCC[C@H](NC(=O)[C@@H]1C[C@]2(CC(c3cccc(Cl)c3)=NO2)CN1C(=O)CN1C[C@H]2CCCC[C@H]2C[C@H]1C(=O)NC(C)(C)C)C(=O)C(=O)NC1CC1 [Compound 276],< 6.30
5,CCC[C@H](NC(=O)[C@@H]1C[C@]2(CC(c3ccccc3Oc3ccc(OC)cc3)=NO2)CN1C(=O)[C@@H](NC(=O)OCc1ccccc1)C(C)(C)C)C(=O)C(=O)NC1CC1 [Compound 278],< 6.30
6,CCC[C@H](NC(=O)[C@@H]1C[C@]2(CC(c3ccc(OC)c(Cl)c3)=NO2)CN1C(=O)[C@@H](NC(=O)CC1CCOCC1)C(C)(C)C)C(=O)C(=O)NC1CC1 [Compound 279],6.30 to 7.00
7,CCC[C@H](NC(=O)[C@@H]1C[C@]2(CC(c3ccccc3)=NO2)CN1C(=O)[C@@H](NC(=O)[C@@H](NC(=O)c1cnccn1)C1CCCCC1)C(C)(C)C)C(=O)C(=O)NC1CC1 [Compound 281],> 7.00
8,CCC[C@H](NC(=O)[C@@H]1C[C@]2(CC(c3ccccc3)=NO2)CN1C(=O)[C@@H](NC(=O)Cc1cccnc1)C(C)(C)C)C(=O)C(=O)NC1CC1 [Compound 283],< 6.30
9,CCC[C@H](NC(=O)[C@@H]1C[C@]2(CC(c3cc(Cl)cc(Cl)c3)=NO2)CN1C(=O)[C@@H](NC(=O)CC1CCOCC1)C(C)(C)C)C(=O)C(=O)NC1CC1 [Compound 285],6.30 to 7.00
10,CCC[C@H](NC(=O)[C@@H]1C[C@]2(CC(c3cccc(Cl)c3)=NO2)CN1C(=O)[C@@H](NC(=O)Cc1cccc(OC)c1)C(C)(C)C)C(=O)C(=O)NC1CC1 [Compound 287],6.30 to 7.00
11,CCC[C@H](NC(=O)[C@@H]1C[C@]2(CC(c3ccccc3)=NO2)CN1C(=O)[C@@H](NC(=O)Nc1cccc2ccccc12)C(C)(C)C)C(=O)C(=O)NC1CC1 [Compound 288],6.30 to 7.00
12,CCC[C@H](NC(=O)[C@@H]1C[C@]2(CC(c3cccc(Cl)c3)=NO2)CN1C(=O)[C@@H](NC(=O)N1CCC2(CC1)CC(=O)c1ccccc12)C(C)(C)C)C(=O)C(=O)NC1CC1 [Compound 291],< 6.30
13,CCC[C@H](NC(=O)[C@@H]1C[C@]2(CC(c3cccc(Cl)c3)=NO2)CN1C(=O)[C@@H](NC(=O)CC1CCCCC1)C(C)(C)C)C(=O)C(=O)NC1CC1 [Compound 294],6.30 to 7.00
14,CCC[C@H](NC(=O)[C@@H]1C[C@]2(CC(c3ccc(Cl)cc3)=NO2)CN1C(=O)[C@@H](NC(=O)CC1CCOCC1)C(C)(C)C)C(=O)C(=O)NC1CC1 [Compound 299],< 6.30
15,CCC[C@H](NC(=O)[C@@H]1C[C@]2(CC(c3ccc(F)c(Cl)c3)=NO2)CN1C(=O)[C@@H](NC(=O)O[C@H]1CCOC1)C(C)(C)C)C(=O)C(=O)NC1CC1 [Compound 301],6.30 to 7.00
16,CCC[C@H](NC(=O)[C@@H]1C[C@]2(CC(c3cccnc3)=NO2)CN1C(=O)[C@@H](NC(=O)CC1CCCCC1)C(C)(C)C)C(=O)C(=O)NC1CC1 [Compound 303],< 6.30
17,CCC[C@H](NC(=O)[C@@H]1C[C@]2(CC(c3cccc(Cl)c3)=NO2)CN1C(=O)[C@@H](NC(=O)OCC1CCCCO1)C(C)(C)C)C(=O)C(=O)NC1CC1 (stereo partly drawn) [Compound 308],6.30 to 7.00
18,CCC[C@H](NC(=O)[C@@H]1C[C@]2(CC(c3cccc(Cl)c3)=NO2)CN1C(=O)[C@@H](NC(=O)C1CCCCC1C(=O)N1CCCC1)C(C)(C)C)C(=O)C(=O)NC1CC1 (stereo partly drawn) [Compound 311],< 6.30
19,CCC[C@H](NC(=O)[C@@H]1C[C@]2(CC(c3cc(Cl)c(OC)cc3OC)=NO2)CN1C(=O)NCc1ccccc1)C(=O)C(=O)NC1CC1 [Compound 313],< 6.30
20,CCC[C@H](NC(=O)[C@@H]1C[C@]2(CC(c3cccc(Cl)c3)=NO2)CN1C(=O)[C@@H](NC(=O)C(C)N1Cc2ccccc2C1=O)C(C)(C)C)C(=O)C(=O)NC1CC1 (stereo partly drawn) [Compound 317],< 6.30
21,CCC[C@H](NC(=O)[C@@H]1C[C@]2(CC(c3cccc(Cl)c3)=NO2)CN1C(=O)[C@@H](NC(=O)CC(C)(C)C)C(C)(C)C)C(=O)C(=O)NC1CC1 [Compound 319],6.30 to 7.00
22,CCC[C@H](NC(=O)[C@@H]1C[C@]2(CC(c3ccc(Cl)c(Cl)c3)=NO2)CN1C(=O)[C@@H](NC(=O)CC1CCCCC1)C(C)(C)C)C(=O)C(=O)NC1CC1 [Compound 323],6.30 to 7.00
23,CCC[C@H](NC(=O)[C@@H]1C[C@]2(CC(c3cccc(Cl)c3)=NO2)CN1C(=O)[C@@H](NC(=O)c1cccc([C@@H](C)C#N)c1)C(C)(C)C)C(=O)C(=O)NC1CC1 [Compound 324],< 6.30
24,CCC[C@H](NC(=O)[C@@H]1C[C@]2(CC(c3cc(C(F)(F)F)cc(C(F)(F)F)c3)=NO2)CN1C(=O)[C@@H](NC(=O)O[C@H]1CCOC1)C(C)(C)C)C(=O)C(=O)NC1CC1 [Compound 330],6.30 to 7.00
